# From patent publication US20050054006A1, “Combinatorial fluorescent library based on the styryl scaffold” (New York University, priority 2003, published 2005)
# Test: Fluorescence excitation/emission of the styryl dye library compounds
# Format: physicochemical
# Settings: EX/EM peak no. 1
compound,measurement,value
C[n+]1ccc(C=Cc2ccc(Br)cc2)cc1.[I-] [Compound A5],EM(nm),540 nm
same,EX(nm),375 nm
COc1cc(C=Cc2cc[n+](C)cc2)cc(OC)c1OC.[I-] [Compound A13],EM(nm),550 nm
same,EX(nm),390 nm
COc1ccc(C=Cc2cc[n+](C)cc2)cc1O.[I-] [Compound A15],EM(nm),510 nm
C[n+]1ccc(C=Cc2ccc(O)cc2)cc1.[I-] [Compound A16],EM(nm),510 nm
same,EX(nm),390-420 nm
CC(=O)Nc1ccc(C=Cc2cc[n+](C)cc2)cc1.[I-] [Compound A18],EM(nm),610 nm
same,EX(nm),420 nm
C[n+]1ccc(C=Cc2ccc([N+](=O)[O-])cc2)cc1.[I-] [Compound A22],EM(nm),540 nm
same,EX(nm),400 nm
C[n+]1ccc(C=Cc2ccccc2F)cc1.[I-] [Compound A29],EM(nm),560 nm
same,EX(nm),400-420 nm
C[n+]1ccc(C=Cc2ccc(F)cc2)cc1.[I-] [Compound A30],EM(nm),590 nm
same,EX(nm),420-440 nm
C[n+]1ccc(C=Cc2ccc3ccccc3c2)cc1.[I-] [Compound A33],EM(nm),600 nm
same,EX(nm),360-420 nm
C[n+]1ccc(C=CC=Cc2ccccc2[N+](=O)[O-])cc1.[I-] [Compound A36],EM(nm),700 nm
same,EX(nm),430 nm
CN(C)c1ccc(C=CC=Cc2cc[n+](C)cc2)cc1.[I-] [Compound A37],EM(nm),580 nm
same,EX(nm),460-490 nm
COc1cc(OC)c(OC)cc1C=Cc1cc[n+](C)cc1.[I-] [Compound A38],EM(nm),540 nm
same,EX(nm),410 nm
C[n+]1ccc(C=Cc2ccc3c(c2)OCO3)cc1.[I-] [Compound A39],EM(nm),540 nm
same,EX(nm),430 nm
Brc1ccc(C=Cc2cc[n+](C34CC5CC(CC(C5)C3)C4)cc2)cc1.[Br-] [Compound B5],EM(nm),570 nm
same,EX(nm),385 nm
COc1ccccc1C=Cc1cc[n+](C23CC4CC(CC(C4)C2)C3)cc1.[Br-] [Compound B9],EM(nm),500 nm
same,EX(nm),390 nm
C(=Cc1ccc(OCc2ccccc2)c(OCc2ccccc2)c1)c1cc[n+](C23CC4CC(CC(C4)C2)C3)cc1.[Br-] [Compound B12],EM(nm),530 nm
same,EX(nm),340-444 nm
COc1ccc(C=Cc2cc[n+](C34CC5CC(CC(C5)C3)C4)cc2)c2ccccc12.[Br-] [Compound B14],EM(nm),550 nm
same,EX(nm),360-450 nm
CC(=O)Nc1ccc(C=Cc2cc[n+](C34CC5CC(CC(C5)C3)C4)cc2)cc1.[Br-] [Compound B18],EM(nm),580 nm
same,EX(nm),420 nm
CN(C)c1ccc(C=Cc2cc[n+](C34CC5CC(CC(C5)C3)C4)cc2)cc1.[Br-] [Compound B19],EM(nm),610 nm
same,EX(nm),380-540 nm
Fc1ccccc1C=Cc1cc[n+](C23CC4CC(CC(C4)C2)C3)cc1.[Br-] [Compound B29],EM(nm),560 nm
same,EX(nm),400-420 nm
Fc1ccc(C=Cc2cc[n+](C34CC5CC(CC(C5)C3)C4)cc2)cc1.[Br-] [Compound B30],EM(nm),590 nm
C(=Cc1c2ccccc2cc2ccccc12)c1cc[n+](C23CC4CC(CC(C4)C2)C3)cc1.[Br-] [Compound B34],EM(nm),610 nm
same,EX(nm),460 nm
COc1cc(C=Cc2cccc[n+]2C)cc(OC)c1OC.[I-] [Compound C13],EM(nm),540 nm
same,EX(nm),380 nm
COc1ccc(C=Cc2cccc[n+]2C)c2ccccc12.[I-] [Compound C14],EM(nm),530 nm
same,EX(nm),390 nm
COc1ccc(C=Cc2cccc[n+]2C)cc1O.[I-] [Compound C15],EM(nm),500 nm
same,EX(nm),390 nm
CN(C)c1ccc(C=Cc2cccc[n+]2C)c2ccccc12.[I-] [Compound C27],EM(nm),620 nm
same,EX(nm),450 nm
C[n+]1ccccc1C=Cc1cccc2ccccc12.[I-] [Compound C32],EM(nm),550 nm
same,EX(nm),390 nm
CN(C)c1ccc(C=CC=Cc2cccc[n+]2C)cc1.[I-] [Compound C37],EM(nm),680 nm
same,EX(nm),520 nm
COc1cc(OC)c(OC)cc1C=Cc1cccc[n+]1C.[I-] [Compound C38],EM(nm),580 nm
same,EX(nm),420 nm
C[n+]1ccccc1C=Cc1ccc2c(c1)OCO2.[I-] [Compound C39],EM(nm),520 nm
same,EX(nm),340 nm
C[n+]1ccccc1C=Cc1ccccn1.[I-] [Compound C40],EM(nm),610 nm
same,EX(nm),390 nm
CCc1ccc(C=Cc2ccc(OCc3ccccc3)c(OCc3ccccc3)c2)[n+](C)c1.[I-] [Compound E12],EM(nm),510 nm
same,EX(nm),400 nm
CCc1ccc(C=Cc2cc(OC)c(OC)c(OC)c2)[n+](C)c1.[I-] [Compound E13],EM(nm),540 nm
same,EX(nm),380 nm
CCc1ccc(/C=C/c2c[nH]c3ccccc23)[n+](C)c1.[I-] [Compound E24],EM(nm),510 nm
same,EX(nm),430 nm
CCc1ccc(/C=C/c2ccc(N(C)C)c3ccccc23)[n+](C)c1.[I-] [Compound E27],EM(nm),620 nm
same,EX(nm),430 nm
CCc1ccc(C=Cc2cccc3ccccc23)[n+](C)c1.[I-] [Compound E32],EM(nm),560 nm
same,EX(nm),420 nm
CCc1ccc(C=Cc2cc(OC)c(OC)cc2OC)[n+](C)c1.[I-] [Compound E38],EM(nm),560 nm
same,EX(nm),430 nm
CCc1ccc(/C=C/c2ccc3c(c2)OCO3)[n+](C)c1.[I-] [Compound E39],EM(nm),500 nm
same,EX(nm),390-420 (broad) nm
CCc1ccc(C=Cc2ccccn2)[n+](C)c1.[I-] [Compound E40],EM(nm),610 nm
same,EX(nm),390 nm
COc1ccccc1C=Cc1cc[n+](C)c(Br)c1.[I-] [Compound F9],EM(nm),520 nm
same,EX(nm),400 nm
COc1ccc(/C=C/c2cc[n+](C)c(Br)c2)cc1.[I-] [Compound F10],EM(nm),520 nm
same,EX(nm),460 nm
C[n+]1ccc(C=Cc2ccc(O)cc2)cc1Br.[I-] [Compound F16],EM(nm),510 nm
same,EX(nm),410 nm
CN(C)c1ccc(C=Cc2cc[n+](C)c(Br)c2)cc1.[I-] [Compound F19],EM(nm),610 nm
same,EX(nm),440(broad) nm
CN(C)c1ccc(C=Cc2cc[n+](C)c(Br)c2)c2ccccc12.[I-] [Compound F27],EM(nm),640 nm
same,EX(nm),460 nm
C[n+]1ccc(C=Cc2cccc3ccccc23)cc1Br.[I-] [Compound F32],EM(nm),530 nm
same,EX(nm),410 nm
COc1cc(OC)c(OC)cc1C=Cc1cc[n+](C)c(Br)c1.[I-] [Compound F38],EM(nm),540 nm
same,EX(nm),460 nm
C[n+]1ccc(/C=C/c2ccc3c(c2)OCO3)cc1Br.[I-] [Compound F39],EM(nm),540 nm
same,EX(nm),400-420 nm
C[n+]1ccc(C=Cc2ccccn2)cc1Br.[I-] [Compound F40],EM(nm),640 nm
same,EX(nm),540 nm
COc1ccc(C=Cc2cc[n+](C)c3ccccc23)cc1OC.[I-] [Compound G11],EM(nm),600 nm
same,EX(nm),420-480 nm
COc1cc(C=Cc2cc[n+](C)c3ccccc23)cc(OC)c1OC.[I-] [Compound G13],EM(nm),620 nm
same,EX(nm),420 nm
COc1ccc(C=Cc2cc[n+](C)c3ccccc23)cc1O.[I-] [Compound G15],EM(nm),560 nm
same,EX(nm),420-460 nm
C[n+]1ccc(/C=C/c2ccc(O)cc2)c2ccccc21.[I-] [Compound G16],EM(nm),560 nm
same,EX(nm),430 nm
C[n+]1ccc(/C=C/c2ccc3c(c2)Cc2ccccc2-3)c2ccccc21.[I-] [Compound G28],EM(nm),620 nm
same,EX(nm),450 nm
C[n+]1ccc(C=Cc2ccccc2F)c2ccccc21.[I-] [Compound G29],EM(nm),560 nm
same,EX(nm),450 nm
CN(C)c1ccc(/C=C/C=C/c2cc[n+](C)c3ccccc23)cc1.[I-] [Compound G37],EM(nm),670 nm
same,EX(nm),530 nm
C[n+]1ccc(/C=C/c2ccc3c(c2)OCO3)c2ccccc21.[I-] [Compound G39],EM(nm),590 nm
same,EX(nm),430 nm
C[n+]1ccc(C=Cc2ccc3ccc4cccc5ccc2c3c45)c2ccccc21.[I-] [Compound G41],EM(nm),660 nm
same,EX(nm),500 nm
C[n+]1c(/C=C/c2ccccc2)ccc2ccccc21.[I-] [Compound H2],EM(nm),640 nm
same,EX(nm),480(weak) nm
C[n+]1c(C=Cc2cccc(Br)c2)ccc2ccccc21.[I-] [Compound H4],EM(nm),640 nm
same,EX(nm),530 nm
C[n+]1c(C=Cc2ccc(Br)cc2)ccc2ccccc21.[I-] [Compound H5],EM(nm),640 nm
same,EX(nm),480 nm
C[n+]1c(C=Cc2ccc(Cl)cc2)ccc2ccccc21.[I-] [Compound H6],EM(nm),640 nm
same,EX(nm),530 nm
Cc1ccccc1C=Cc1ccc2ccccc2[n+]1C.[I-] [Compound H7],EM(nm),650 nm
same,EX(nm),420 nm
Cc1ccc(/C=C/c2ccc3ccccc3[n+]2C)cc1.[I-] [Compound H8],EM(nm),650 nm
same,EX(nm),530 nm
COc1ccc(C=Cc2ccc3ccccc3[n+]2C)cc1OC.[I-] [Compound H11],EM(nm),570 nm
same,EX(nm),460 nm
COc1cc(C=Cc2ccc3ccccc3[n+]2C)cc(OC)c1OC.[I-] [Compound H13],EM(nm),590 nm
same,EX(nm),420 nm
C[n+]1c(C=Cc2c3ccccc3cc3ccccc23)ccc2ccccc21.[I-] [Compound H34],EM(nm),650 nm
same,EX(nm),460 nm
C[n+]1c(C=Cc2ccc3ccc4cccc5ccc2c3c45)ccc2ccccc21.[I-] [Compound H41],EM(nm),640 nm
same,EX(nm),480 nm
COc1ccc2c(ccc(C=Cc3ccc(Br)cc3)[n+]2C)c1.[I-] [Compound I5],EM(nm),650 nm
same,EX(nm),420 nm
COc1ccc2c(ccc(C=Cc3ccc(OC)c(OC)c3)[n+]2C)c1.[I-] [Compound I11],EM(nm),560 nm
same,EX(nm),430 nm
